According to PMC11662004 (Communications Chemistry, 2024):

Tests used:
TET2CDΔLCI [1] = molecular target: T1, TET2CDΔLCI (Homo sapiens, UniProt Q6N021); assay: Continuous reaction monitoring (1H NMR), 2OG decarboxylation; type: biochemical
T1 construct: FLAG-[thrombin cleavage site]-SUMO (N); made in house; host or cells: E. coli
Protocol: Double-stranded DNA oligomers were added at a final concentration of 20 µM. Data plotted from two independent replicates (n = 2). Initial rates reported as the mean of two independent replicates (n = 2). TEXT PRINTED IN THE PICTURE: (c) No DNA: V0 (μM min^−1) NgTet1: 0.36; V0 (μM min^−1) TET2: 1.28; Relative V0 NgTet1: 1; Relative V0 TET2: 1 | (c) ^5HC DNA: V0 (μM min^−1) NgTet1: 1.30; V0 (μM min^−1) TET2: 6.34; Relative V0 NgTet1: 3.6; Relative V0 TET2: 5.0 | (c) AT DNA: V0 (μM min^−1) NgTet1: 0.82; V0 (μM min^−1) TET2: 5.78; Relative V0 NgTet1: 2.3; Relative V0 TET2: 4.5 | (c) ^5mC DNA: V0 (μM min^−1) NgTet1: 1.52; V0 (μM min^−1) TET2: 6.79; Relative V0 NgTet1: 4.2; Relative V0 TET2: 5.3
All ^1H NMR spectra were recorded at 25 °C using D2O as a reference for internal deuterium lock on a Bruker Avance III 700 MHz equipped with an inverse TCI cryoprobe in 3 or 5 mm diameter tubes with a total sample volume of 160 or 565 μL, respectively. The water signal was reduced using Perfect Echo excitation sculpting suppression. Chemical shifts are reported in ppm relative to D2O (δH = 4.70 ppm).
Spectrometer settings were determined using a control sample containing all reaction components excluding enzyme. TET enzyme was added to an identical sample, and the resulting assay mixture was transferred to an NMR tube before deposition into the instrument. […] Data acquisition was started following a brief spectrometer setting optimisation (up to 200 s delay between enzyme addition and data acquisition); 8–32 scans were accumulated for a single spectrum, corresponding to 65–179 s of acquisition time. Spectrum recordings were carried out consecutively without delay. Data were processed using automated routines on MestReNova v14.2.0; signals of interest were integrated with absolute intensity scaling. ^1H NMR time courses reported in figures are representative results from two or three independent replicates.

TET2CDΔLCI [2] = molecular target: T1, TET2CDΔLCI; assay: AlphaScreen competition assay with biotinylated 5mC dsDNA; type: binding; conditions: 12.5 nM TET2CDΔLCI, 12.5 nM 5mC dsDNA
Protocol: AlphaScreen™ Histidine (Nickel Chelate) Detection Kit was used to evaluate displacement of […] (^5mC dsDNA)[33],[34]. Competitor DNA oligomers in assay buffer were manually dispensed onto 384-well ProxiPlates (5 μL) in a 2-fold dilution series. His6-tagged NgTet1 or TET2CDΔLCI in assay buffer was added (5 μL), and the mixture was pre-incubated with the competitor DNA at room temperature for 10 min. Cofactors and biotinylated ^5mC dsDNA in assay buffer were added (5 μL), and the mixture was further incubated at room temperature for 10 min. A mixture of AlphaScreen beads (1:62.5 dilution) in assay buffer was added (5 μL), and the full mixture was incubated at room temperature for 1 h. The final mixtures (20 μL) contained 100 nM NgTet1 (50 nM ^5mC dsDNA) or 12.5 nM TET2CDΔLCI (12.5 nM ^5mC dsDNA), 50 μM sodium L-ascorbate, 5 μM (NH4)2Fe(SO4)2, and 5 μM disodium NOG in assay buffer (50 mM HEPES [pH 7.3], 150 mM NaCl, 0.1% v/v BSA, 0.01% v/v Tween® 20). For the assay interference counter screen, His6-tagged TET protein and biotinylated ^5mC dsDNA were replaced with 1.6 nM biotinylated His6 peptide. Chemiluminescence was measured on a PHERAstar FS/FSX (BMG Labtech) equipped with an AlphaScreen 680 570 module. All AlphaScreen bead manipulations were performed under subdued lighting. Inhibition data was normalised to reactions containing no competitor and fitted using “log(inhibitor) vs. response - Variable slope (four parameters)” non-linear regression model on GraphPad Prism 5. […]
Fig. S5 TETs bind to DNA in a sequence- and modification-independent manner. A binding assay between a biotinylated 5mC dsDNA oligomer and His6-tagged TET was developed using AlphaScreen Histidine (Nickel Chelate) assay. […] Conditions: a 100 nM NgTet1 (50 nM 5mC dsDNA), b 12.5 nM TET2CDΔLCI (12.5 nM 5mC dsDNA), c 1.6 nM biotinylated His6 peptide. Each assay was supplemented with 50 μM sodium L-ascorbate, 5 μM (NH4)2Fe(SO4)2, and 5 μM disodium NOG. Data shown as the mean of three to four experimental replicates (n = 3–4; mean ± SD); tabulated data reported as the mean of two independent replicates (n = 2).

5HC DNA: non-methylated DNA of the same sequence, 5'-ACC ACC GGT GGT-3', non-substrate (DNA ACCACCGGTGGT; DNA, backbone not given here)
V0 TET2 (TET2CDΔLCI [1]; 20 µM DNA, 100 μM 2OG, 5 μM TET2CDΔLCI): 6.34 µM/min | succinate (TET2CDΔLCI [1]; n = 1, time (min) 5HC DNA 5.78333, AT DNA 5.73333, 5mC DNA 5.58333): 44.3007 µM | succinate (TET2CDΔLCI [1]; n = 1, time (min) 5HC DNA 8.86667, AT DNA 8.81667, 5mC DNA 8.65): 54.4828 µM | succinate (TET2CDΔLCI [1]; n = 1, time (min) 5HC DNA 11.95, AT DNA 11.8833, 5mC DNA 11.7333): 59.3102 µM | succinate (TET2CDΔLCI [1]; n = 1, time (min) 5HC DNA 15.0333, AT DNA 14.9667, 5mC DNA 14.8167): 61.4847 µM | succinate (TET2CDΔLCI [1]; n = 1, time (min) 5HC DNA 18.1167, AT DNA 18.05, 5mC DNA 17.9): 65.1131 µM | succinate (TET2CDΔLCI [1]; n = 1, time (min) 5HC DNA 21.2333, AT DNA 21.1333, 5mC DNA 21): 67.3764 µM | succinate (TET2CDΔLCI [1]; n = 1, time (min) 5HC DNA 24.3333, AT DNA 24.2167, 5mC DNA 24.0667): 68.0997 µM | succinate (TET2CDΔLCI [1]; n = 1, time (min) 5HC DNA 27.4167, AT DNA 27.3, 5mC DNA 27.15): 69.3831 µM | succinate (TET2CDΔLCI [1]; n = 1, time (min) 5HC DNA 30.55, AT DNA 30.3833, 5mC DNA 30.2333): 70.6241 µM | succinate (TET2CDΔLCI [1]; n = 1, time (min) 5HC DNA 33.65, AT DNA 33.4667, 5mC DNA 33.3167): 71.0252 µM | succinate (TET2CDΔLCI [1]; n = 1, time (min) 5HC DNA 36.7333, AT DNA 36.5333, 5mC DNA 36.4): 71.8004 µM | succinate (TET2CDΔLCI [1]; n = 1, time (min) 5HC DNA 39.8333, AT DNA 39.6167, 5mC DNA 39.4833): 71.1327 µM | succinate (TET2CDΔLCI [1]; n = 1, time (min) 5HC DNA 42.9, AT DNA 42.7, 5mC DNA 42.5667): 71.8764 µM | succinate (TET2CDΔLCI [1]; n = 1, time (min) 5HC DNA 46, AT DNA 45.7833, 5mC DNA 45.6667): 73.8393 µM | succinate (TET2CDΔLCI [1]; n = 1, time (min) 5HC DNA 49.0833, AT DNA 48.8667, 5mC DNA 48.75): 72.8966 µM | succinate (TET2CDΔLCI [1]; n = 1, time (min) 5HC DNA 52.1667, AT DNA 51.95, 5mC DNA 51.8333): 73.2704 µM | succinate (TET2CDΔLCI [1]; n = 1, time (min) 5HC DNA 55.25, AT DNA 55.0333, 5mC DNA 54.9167): 74.052 µM | succinate (TET2CDΔLCI [1]; n = 1, time (min) 5HC DNA 58.3167, AT DNA 58.1167, 5mC DNA 58): 74.0256 µM | succinate (TET2CDΔLCI [1]; n = 1, time (min) 5HC DNA 61.4, AT DNA 61.2667, 5mC DNA 61.1): 74.622 µM | succinate (TET2CDΔLCI [1]; n = 2, time (min) 5HC DNA 5.66667, AT DNA 5.66667, 5mC DNA 5.8): 46.0808 µM | succinate (TET2CDΔLCI [1]; n = 2, time (min) 5HC DNA 8.75, AT DNA 8.75, 5mC DNA 8.88333): 55.6216 µM | succinate (TET2CDΔLCI [1]; n = 2, time (min) 5HC DNA 11.8333, AT DNA 11.85, 5mC DNA 11.9667): 60.916 µM | succinate (TET2CDΔLCI [1]; n = 2, time (min) 5HC DNA 14.9167, AT DNA 14.9333, 5mC DNA 15.05): 64.6085 µM | succinate (TET2CDΔLCI [1]; n = 2, time (min) 5HC DNA 18.0167, AT DNA 18.0167, 5mC DNA 18.1167): 67.8421 µM | succinate (TET2CDΔLCI [1]; n = 2, time (min) 5HC DNA 21.1, AT DNA 21.1, 5mC DNA 21.2): 69.2588 µM | succinate (TET2CDΔLCI [1]; n = 2, time (min) 5HC DNA 24.1833, AT DNA 24.1667, 5mC DNA 24.2833): 70.2836 µM | succinate (TET2CDΔLCI [1]; n = 2, time (min) 5HC DNA 27.25, AT DNA 27.25, 5mC DNA 27.3667): 71.3409 µM | succinate (TET2CDΔLCI [1]; n = 2, time (min) 5HC DNA 30.3333, AT DNA 30.3333, 5mC DNA 30.45): 71.8731 µM | succinate (TET2CDΔLCI [1]; n = 2, time (min) 5HC DNA 33.4167, AT DNA 33.4167, 5mC DNA 33.5333): 71.8297 µM | succinate (TET2CDΔLCI [1]; n = 2, time (min) 5HC DNA 36.5, AT DNA 36.5, 5mC DNA 36.6167): 74.102 µM | succinate (TET2CDΔLCI [1]; n = 2, time (min) 5HC DNA 39.5833, AT DNA 39.5833, 5mC DNA 39.7): 75.5956 µM | succinate (TET2CDΔLCI [1]; n = 2, time (min) 5HC DNA 42.6667, AT DNA 42.6667, 5mC DNA 42.7833): 75.7723 µM | succinate (TET2CDΔLCI [1]; n = 2, time (min) 5HC DNA 45.75, AT DNA 45.75, 5mC DNA 45.8667): 76.9891 µM | succinate (TET2CDΔLCI [1]; n = 2, time (min) 5HC DNA 48.8333, AT DNA 48.8333, 5mC DNA 48.95): 76.9274 µM | Relative V0 TET2 (TET2CDΔLCI [1]; relative to reactions without DNA): 5.0 | IC50 (TET2CDΔLCI [2]): 8.91 µM | competition pIC50 TET2CDΔLCI (TET2CDΔLCI [2]; n = 2): 5.05
